Measured values published in PubChem BioAssay AID248 (DTP/NCI, 2004).
“And” between values parts separate entries of the source, which are not always exact repeats. Equal entries are not always repeated. Toxic doses and inconclusive results are not listed.

Test system: L1210 leukemia ip in BDF1 mice, survival T/C
Experiment: NCI In Vivo Anticancer Drug Screen. Data for tumor model L1210 Leukemia (intraperitoneal) in B6D2F1 (BDF1) mice
Details: higher = longer survival
Procedure, shortened: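 In this screen, tumor-bearing mice given compound are compared to those given vehicle, and their survival values are reported as a treated-to-control quotient.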

`CC[C@H]1CN2CCc3cc(OC)c(OC)cc3[C@@H]2C[C@@H]1C[C@H]1NCCc2cc(OC)c(OC)cc21` was tested, and the T/C (endpoint: mean survival time, dose: 0.93 mg/kg/injection, schedule: Q04DX003 (ip), vehicle: water) was 108 % of control, the T/C (endpoint: mean survival time, dose: 1.0 mg/kg/injection, schedule: Q01DX009 (ip), vehicle: saline) was 109 % of control and the T/C (endpoint: mean survival time, dose: 1.75 mg/kg/injection, schedule: Q01DX009 (ip), vehicle: saline) was 115 % of control and 121 % of control. The T/C (endpoint: mean survival time, dose: 1.8 mg/kg/injection, schedule: Q01DX009 (ip), vehicle: saline) was 104 % of control and 120 % of control, the T/C (endpoint: mean survival time, dose: 1.86 mg/kg/injection, schedule: Q04DX003 (ip), vehicle: water) was 105 % of control and the T/C (endpoint: mean survival time, dose: 1.88 mg/kg/injection, schedule: Q01DX001 (ip), vehicle: water) was 102 % of control. The T/C (endpoint: mean survival time, dose: 2.0 mg/kg/injection, schedule: Q01DX005 (iv), vehicle: saline) was 108 % of control, the T/C (endpoint: mean survival time, dose: 2.0 mg/kg/injection, schedule: Q01DX005 (oral), vehicle: saline) was 103 % of control and the T/C (endpoint: mean survival time, dose: 2.0 mg/kg/injection, schedule: Q01DX005 (sc), vehicle: saline) was 105 % of control. The T/C (endpoint: mean survival time, dose: 2.0 mg/kg/injection, schedule: Q01DX006 (ip), vehicle: saline) was 112 % of control, the T/C (endpoint: mean survival time, dose: 2.0 mg/kg/injection, schedule: Q01DX009 (ip), vehicle: saline) was 108 % of control and the T/C (endpoint: mean survival time, dose: 2.0 mg/kg/injection, schedule: Q04DX003 (ip), vehicle: saline) was 100 % of control. For the same compound, the T/C (endpoint: mean survival time, dose: 2.0 mg/kg/injection, schedule: Q04DX003 (iv), vehicle: saline) was 110 % of control, the T/C (endpoint: mean survival time, dose: 2.0 mg/kg/injection, schedule: Q04DX003 (oral), vehicle: saline) was 110 % of control and the T/C (endpoint: mean survival time, dose: 2.0 mg/kg/injection, schedule: Q04DX003 (sc), vehicle: saline) was 106 % of control. The T/C (endpoint: mean survival time, dose: 2.0 mg/kg/injection, schedule: Q08DX002 (iv), vehicle: saline) was 106 % of control, the T/C (endpoint: mean survival time, dose: 2.0 mg/kg/injection, schedule: Q08DX002 (oral), vehicle: saline) was 103 % of control and the T/C (endpoint: mean survival time, dose: 2.5 mg/kg/injection, schedule: Q04DX003 (ip), vehicle: water) was 104 % of control. For the same compound, the T/C (endpoint: mean survival time, dose: 3.0 mg/kg/injection, schedule: Q01DX009 (oral), vehicle: saline) was 112 % of control, the T/C (endpoint: mean survival time, dose: 3.75 mg/kg/injection, schedule: Q01DX001 (ip), vehicle: water) was 103 % of control and the T/C (endpoint: mean survival time, dose: 3.75 mg/kg/injection, schedule: Q04DX003 (ip), vehicle: water) was 104 % of control. The T/C (endpoint: mean survival time, dose: 4.0 mg/kg/injection, schedule: Q01DX009 (ip), vehicle: saline) was 97 % of control, the T/C (endpoint: mean survival time, dose: 4.0 mg/kg/injection, schedule: Q04DX003 (ip), vehicle: water) was 113 % of control and 116 % of control and 117 % of control and the T/C (endpoint: mean survival time, dose: 4.0 mg/kg/injection, schedule: Q04DX003 (iv), vehicle: saline) was 108 % of control. For the same compound, the T/C (endpoint: mean survival time, dose: 4.0 mg/kg/injection, schedule: Q04DX003 (oral), vehicle: saline) was 108 % of control, the T/C (endpoint: mean survival time, dose: 4.0 mg/kg/injection, schedule: Q04DX003 (sc), vehicle: saline) was 110 % of control and the T/C (endpoint: mean survival time, dose: 4.0 mg/kg/injection, schedule: Q08DX002 (ip), vehicle: saline) was 112 % of control. The T/C (endpoint: mean survival time, dose: 4.0 mg/kg/injection, schedule: Q08DX002 (oral), vehicle: saline) was 110 % of control, the T/C (endpoint: mean survival time, dose: 4.0 mg/kg/injection, schedule: Q08DX002 (sc), vehicle: saline) was 108 % of control and the T/C (endpoint: mean survival time, dose: 4.0 mg/kg/injection, schedule: Q## X003 (ip), vehicle: saline) was 115 % of control. For the same compound, the T/C (endpoint: mean survival time, dose: 5.0 mg/kg/injection, schedule: Q04DX003 (ip), vehicle: water) was 109 % of control, the T/C (endpoint: mean survival time, dose: 6.0 mg/kg/injection, schedule: Q01DX009 (oral), vehicle: saline) was 108 % of control and the T/C (endpoint: mean survival time, dose: 6.0 mg/kg/injection, schedule: Q01DX015 (ip), vehicle: saline) was 102 % of control. The T/C (endpoint: mean survival time, dose: 7.5 mg/kg/injection, schedule: Q01DX001 (ip), vehicle: water) was 106 % of control, the T/C (endpoint: mean survival time, dose: 8.0 mg/kg/injection, schedule: Q01DX006 (ip), vehicle: saline) was 156 % of control and the T/C (endpoint: mean survival time, dose: 8.0 mg/kg/injection, schedule: Q04DX003 (ip), vehicle: water) was 109 % of control and 124 % of control. For the same compound, the T/C (endpoint: mean survival time, dose: 8.0 mg/kg/injection, schedule: Q04DX003 (iv), vehicle: saline) was 122 % of control, the T/C (endpoint: mean survival time, dose: 8.0 mg/kg/injection, schedule: Q04DX003 (oral), vehicle: saline) was 116 % of control and the T/C (endpoint: mean survival time, dose: 8.0 mg/kg/injection, schedule: Q04DX003 (sc), vehicle: saline) was 113 % of control. The T/C (endpoint: mean survival time, dose: 8.0 mg/kg/injection, schedule: Q08DX002 (ip), vehicle: saline) was 120 % of control, the T/C (endpoint: mean survival time, dose: 8.0 mg/kg/injection, schedule: Q08DX002 (oral), vehicle: saline) was 110 % of control and the T/C (endpoint: mean survival time, dose: 8.0 mg/kg/injection, schedule: Q08DX002 (sc), vehicle: saline) was 111 % of control. The T/C (endpoint: mean survival time, dose: 8.0 mg/kg/injection, schedule: Q## X002 (ip), vehicle: saline) was 118 % of control, the T/C (endpoint: mean survival time, dose: 8.0 mg/kg/injection, schedule: Q## X003 (ip), vehicle: saline) was 123 % of control and the T/C (endpoint: mean survival time, dose: 8.0 mg/kg/injection, schedule: Q## X008 (ip), vehicle: saline) was 110 % of control. For the same compound, the T/C (endpoint: mean survival time, dose: 8.0 mg/kg/injection, schedule: Q## X024 (ip), vehicle: saline) was 117 % of control, the T/C (endpoint: mean survival time, dose: 9.0 mg/kg/injection, schedule: Q01DX Z (ip), vehicle: methylcellulose (MC)) was 92 % of control and the T/C (endpoint: mean survival time, dose: 10.0 mg/kg/injection, schedule: Q04DX009 (ip), vehicle: water) was 121 % of control. The T/C (endpoint: mean survival time, dose: 15.0 mg/kg/injection, schedule: Q01DX001 (ip), vehicle: water) was 117 % of control, the T/C (endpoint: mean survival time, dose: 15.0 mg/kg/injection, schedule: Q04DX003 (ip), vehicle: Klucel (hydroxypropylcellulose) (HPC)) was 152 % of control and the T/C (endpoint: mean survival time, dose: 15.0 mg/kg/injection, schedule: Q04DX009 (ip), vehicle: water) was 160 % of control. For the same compound, the T/C (endpoint: mean survival time, dose: 16.0 mg/kg/injection, schedule: Q01DX001 (ip), vehicle: saline) was 121 % of control, the T/C (endpoint: mean survival time, dose: 16.0 mg/kg/injection, schedule: Q04DX003 (ip), vehicle: water) was 161 % of control and the T/C (endpoint: mean survival time, dose: 16.0 mg/kg/injection, schedule: Q## X003 (ip), vehicle: saline) was 171 % of control. The T/C (endpoint: mean survival time, dose: 20.0 mg/kg/injection, schedule: Q04DX003 (ip), vehicle: Klucel (hydroxypropylcellulose) (HPC)) was 162 % of control and 164 % of control, the T/C (endpoint: mean survival time, dose: 20.0 mg/kg/injection, schedule: Q04DX009 (ip), vehicle: water) was 168 % of control and the T/C (endpoint: mean survival time, dose: 22.2 mg/kg/injection, schedule: Q01DX001 (ip), vehicle: carboxymethylcellulose (CMC)) was 102 % of control. The T/C (endpoint: mean survival time, dose: 25.0 mg/kg/injection, schedule: Q04DX003 (ip), vehicle: saline with Tween-80) was 164 % of control, the T/C (endpoint: mean survival time, dose: 25.0 mg/kg/injection, schedule: Q04DX009 (ip), vehicle: water) was 118 % of control and the T/C (endpoint: mean survival time, dose: 30.0 mg/kg/injection, schedule: Q04DX003 (ip), vehicle: Klucel (hydroxypropylcellulose) (HPC)) was 95 % of control and 107 % of control. The T/C (endpoint: mean survival time, dose: 30.0 mg/kg/injection, schedule: Q04DX003 (ip), vehicle: saline with Tween-80) was 115 % of control, the T/C (endpoint: mean survival time, dose: 32.0 mg/kg/injection, schedule: Q04DX003 (ip), vehicle: water) was 154 % of control and the T/C (endpoint: mean survival time, dose: 32.0 mg/kg/injection, schedule: Q08DX002 (ip), vehicle: saline) was 152 % of control. The T/C (endpoint: mean survival time, dose: 33.35 mg/kg/injection, schedule: Q01DX001 (ip), vehicle: carboxymethylcellulose (CMC)) was 107 % of control, the T/C (endpoint: median survival time, dose: 3.75 mg/kg/injection, schedule: Q04DX003 (ip), vehicle: saline) was 116 % of control and the T/C (endpoint: median survival time, dose: 4.0 mg/kg/injection, schedule: Q04DX003 (ip), vehicle: saline) was 103 % of control. For the same compound, the T/C (endpoint: median survival time, dose: 7.5 mg/kg/injection, schedule: Q04DX003 (ip), vehicle: saline) was 122 % of control, the T/C (endpoint: median survival time, dose: 8.0 mg/kg/injection, schedule: Q01DX001 (ip), vehicle: saline) was 112 % of control and the T/C (endpoint: median survival time, dose: 15.0 mg/kg/injection, schedule: Q04DX003 (ip), vehicle: saline) was 161 % of control and 168 % of control. For the same compound, the T/C (endpoint: median survival time, dose: 16.0 mg/kg/injection, schedule: Q04DX003 (ip), vehicle: saline) was 166 % of control, the T/C (endpoint: median survival time, dose: 20.0 mg/kg/injection, schedule: Q04DX003 (ip), vehicle: saline) was 177 % of control and 179 % of control and the T/C (endpoint: median survival time, dose: 30.0 mg/kg/injection, schedule: Q04DX003 (ip), vehicle: saline) was 101 % of control. The T/C (endpoint: median survival time, dose: 32.0 mg/kg/injection, schedule: Q04DX003 (ip), vehicle: saline) was 110 % of control and the T/C (endpoint: median survival time, dose: 40.0 mg/kg/injection, schedule: Q04DX003 (ip), vehicle: saline) was 69 % of control.

`Nc1ncnc(N)c1NC(=O)Cc1ccccc1` was tested, and the T/C (endpoint: mean survival time, dose: 100.0 mg/kg/injection, schedule: Q01DX001 (ip), vehicle: saline with Tween-80) was 98 % of control, the T/C (endpoint: mean survival time, dose: 200.0 mg/kg/injection, schedule: Q01DX001 (ip), vehicle: saline with Tween-80) was 97 % of control and the T/C (endpoint: mean survival time, dose: 400.0 mg/kg/injection, schedule: Q01DX001 (ip), vehicle: saline with Tween-80) was 98 % of control.

In the case of `CC(=O)O[C@@H]1C[C@@]2(C)[C@@H]3CC=C4[C@@H](C[C@H](O)C(=O)C4(C)C)[C@]3(C)C(=O)C[C@]2(C)[C@H]1[C@@](C)(O)C(=O)/C=C/C(C)(C)OC(C)=O`, the T/C (endpoint: mean survival time, dose: 50.0 mg/kg/injection, schedule: Q01DX001 (ip), vehicle: saline) is reported as 102 % of control and the T/C (endpoint: mean survival time, dose: 100.0 mg/kg/injection, schedule: Q01DX001 (ip), vehicle: saline) is reported as 107 % of control.

In the case of `CCCCCCCC(=O)N1CCCCC1C` (configuration not stated), the T/C (endpoint: mean survival time, dose: 100.0 mg/kg/injection, schedule: Q04DX002 (ip), vehicle: Klucel (hydroxypropylcellulose) (HPC)) is reported as 103 % of control, the T/C (endpoint: mean survival time, dose: 200.0 mg/kg/injection, schedule: Q04DX002 (ip), vehicle: Klucel (hydroxypropylcellulose) (HPC)) is reported as 103 % of control and the T/C (endpoint: mean survival time, dose: 400.0 mg/kg/injection, schedule: Q04DX002 (ip), vehicle: Klucel (hydroxypropylcellulose) (HPC)) is reported as 98 % of control.
